Measured values: patent publication EP3782997A1, “FUSED PYRIMIDINE COMPOUNDS AND PHARMACEUTICAL COMPOSITIONS THEREOF FOR THE TREATMENT OF FIBROTIC DISEASES” (Galapagos N.V., priority 2019, dated 2021)

target: hENPP2 (Homo sapiens, UniProt Q13822); experiment: Human ENPP2 (hENPP2) biochemical assay using LPC as substrate; details: 150 µM LPC (palmitoyl 16:0), 37°C for 30 min
Protocol: The principle of the assay conswasts in quantifying the released choline with an enzymatic method using choline oxidase and peroxidase. Choline oxydation by choline oxydase releases betaine and peroxide. The latter was quantified in presence of HRP that converts the peroxide detection agent TOOS (CAS# 82692-93-1) and 4-aminoantipyrine into quinoneimine dye. The appearance of quinoneimine dye was measured spectrophotometrically at 555 nm and was proportional to the amount of choline released by ENPP2. Inhibition of ENPP2 results in a decrease of the signal.
Compound IC50 values were determined in a hENPP2 (UniProtKB/SwwassProt Sequence ref Q13822) biochemical assay using LPC as substrate.
5 µL of a dilution series of compound, starting from 50 µM highest concentration, 1/3 dilution, was added to the wells. hENPP2 was used at a final concentration of 1 µg/mL or 3 µg/mL (it will be appreciated by the skilled person that the potency read out was independent of the enzyme concentration). The enzyme was diluted in 50 mM Trwas-HCl pH 8.5, 500 mM NaCl, 5 mM KCl, 10 mM CaCl2, 0.1% fatty acid free BSA in a total volume of 10 µL. The reaction was started by the addition of 10 µL of 150 µM LPC (palmitoyl 16:0; Avanti Polar Lipids, Inc., Cat# 855675) diluted in the same buffer as described above and the mixture was incubated at 37°C for 30 min. The reaction was terminated and choline quantified by the addition of a 25 µL of a mixture containing 0.6 U/mL of choline oxidase, 0.6 U/mL of peroxydase, 1.8 mM TOOS, 1.2 mM amino-antipyrine, 20 mM EGTA (stop-developer solution) diluted in the buffer described above. […] was read on an Envision plate reader (PerkinElmer, Inc.) after an incubation of 30 min at room temperature (excitation 555 nm).

SMILES | IC50 [nM]
COC(=O)[C@H]1CN(C(=O)c2ccc3[nH]nnc3c2)CC[C@H]1N1Cc2cnc(Nc3cc(C)cc(C)c3)nc2C1 (racemic) [Cpd 137, methyl (3S,4R/3R,4S)-1-(1H-benzotriazole-5-carbonyl)-4-[2-(3,5-dimethylanilino)-5,7-dihydropyrrolo[3,4-d]pyrimidin-6-yl]piperidine-3-carboxylate] | 0.01 to 100
Cc1cc(C)cc(Nc2ncc3c(n2)CN(C2CCN(C(=O)c4ccc5[nH]nnc5c4)C(C)C2)C3)c1 (racemic) [compound 34, 1H-benzotriazol-5-yl-[(2S,4S/2R,4R)-4-[2-(3,5-dimethylanilino)-5,7-dihydropyrrolo[3,4-d]pyrimidin-6-yl]-2-methyl-1-piperidyl]methanone] | 0.01 to 100
Cc1cc(C)cc(Nc2ncc3c(n2)CN([C@H]2CCN(C(=O)c4ccc5[nH]nnc5c4)C[C@@H]2C)C3)c1 (racemic) [compound 99, 1H-benzotriazol-5-yl-[(3S,4S/3R,4R)-4-[2-(3,5-dimethylanilino)-5,7-dihydropyrrolo[3,4-d]pyrimidin-6-yl]-3-methyl-1-piperidyl]methanone] | 0.01 to 100
Cc1cc(C)cc(Nc2ncc3c(n2)CN([C@@H]2CN(C(=O)c4ccc5[nH]nnc5c4)C[C@@H]2F)C3)c1 (racemic) [compound 102, 1H-benzotriazol-5-yl-[(3R,4S/3S,4R)-3-[2-(3,5-dimethylanilino)-5,7-dihydropyrrolo[3,4-d]pyrimidin-6-yl] -4-fluoro-pyrrolidin-1-yl]methanone] | 500 to 1000
Cc1cc(C)cc(Nc2ncc3c(n2)CCN([C@H]2CN(C(=O)c4ccc5[nH]nnc5c4)C[C@H]2F)C3)c1 (racemic) [compound 103, 1H-benzotriazol-5-yl-[(3S,4R/3R,4S)-3-[2-(3,5-dimethylanilino)-7,8-dihydro-5H-pyrido[4,3-d]pyrimidin-6-yl] -4-fluoro-pyrrolidin-1-yl]methanone] | 0.01 to 100
COc1cc2[nH]nnc2cc1C(=O)N1CC[C@H](N2Cc3cnc(Nc4cc(C)cc(C)c4)nc3C2)[C@H](C)C1 (racemic) [compound 119, [(3R,4S/3S,4R)-4-[2-(3,5-dimethylanilino)-5,7-dihydropyrrolo[3,4-d]pyrimidin-6-yl]-3-methyl-1-piperidyl]-(6-methoxy-1H-benzotriazol-5-yl)methanone] | 0.01 to 100
Cc1cc(C)cc(Nc2ncc3c(n2)CN([C@H]2CCN(C(=O)c4cc5nn[nH]c5cc4F)C[C@H]2C)C3)c1 (racemic) [compound 148, [(3R,4S/3S,4R)-4-[2-(3,5-dimethylanilino)-5,7-dihydropyrrolo[3,4-d]pyrimidin-6-yl]-3-methyl-1-piperidyl]-(6-fluoro-1H-benzotriazol-5-yl)methanone] | 0.01 to 100
Cc1cc(C)cc(Nc2ncc3c(n2)CN([C@H]2CCN(C(=O)c4ccnc(NS(C)(=O)=O)c4)C[C@H]2C)C3)c1 (racemic) [compound 167, N-[4-[(3R,4S/3S,4R)-4-[2-(3,5-dimethylanilino)-5,7-dihydropyrrolo[3,4-d]pyrimidin-6-yl]-3-methyl-piperidine-1-carbonyl]-2-pyridyl]methanesulfonamide] | 0.01 to 100
Cc1cc(C)cc(Nc2ncc3c(n2)CN([C@H]2CCN(C(=O)c4c[nH]nn4)C[C@H]2C)C3)c1 (racemic) [compound 172, [(3R,4S/3S,4R)-4-[2-(3,5-dimethylanilino)-5,7-dihydropyrrolo[3,4-d]pyrimidin-6-yl]-3-methyl-1-piperidyl]-(1H-triazol-4-yl)methanone] | 0.01 to 100
Cc1cc(C)cc(Nc2ncc3c(n2)CN(C2CCN(C(=O)c4ccc5[nH]nnc5c4)CC2O)C3)c1 (single isomer, unassigned) [Cpd 110, 1H-benzotriazol-5-yl-[4-[2-(3,5-dimethylanilino)-5,7-dihydropyrrolo[3,4-d]pyrimidin-6-yl]-3-hydroxy-1-piperidyl]methanone] | 0.01 to 100
